Values joined by “and” are separate entries in the source; they are usually repeats but may differ in a detail not shown here. Equal values may be shown once.
Tests used:
[1] = Stability of DOXO-EMCH in DI water with manual pH adjustment (RP-HPLC); type: physicochemical; settings: for DOXO-EMCH / Doxorubicin: ~2.0 mg/mL in DI Water, manual pH adjustment to pH ~6.1 at 30 minute intervals
Method: (§1) To analyze DOXO-EMCH's behavior in solution, a reversed-phase (RP) HPLC method for quantitation of DOXO-EMCH and various impurities and degradation products was utilized. Samples (1.0 μL injection volume) were assayed on an HPLC system fitted with a Phenomenex Gemini C18 column 100×2.0 mm, 3 μm at a flow rate of 0.3 mL/min. The mobile phase used was an acetate/acetonitrile gradient. The degradation product EMCH could not be detected using the above HPLC method, and was therefore determined using a liquid chromatography-mass spectrometry (LC-MS) method.
An additional study was performed to obtain data on the stability of DOXO-EMCH dissolved in DI water with manual pH adjustment. The initial pH of the DOXO-EMCH solution (˜2.0 mg/mL) dissolved in DI Water was 5.4. At 30 minute intervals, the pH of the DOXO-EMCH solution was checked and adjusted to pH ˜6.1 by the dropwise addition of a 0.1 N NaOH solution.

[2] = test system: dogs; settings: acute and repeat-dose; cited from earlier work
[3] = Solubility and stability of lyophilized DOXO-EMCH reconstituted in diluents at 10 mg/mL; type: physicochemical; settings: for pH: ambient conditions
Method: as §1
Having established preliminary information on DOXO-EMCH's properties when dissolved in NS, LR, and D5W, a follow-up study was designed to evaluate (1) the solubility and stability of DOXO-EMCH in selected diluents upon reconstitution and (2) the subsequent stability of various IV Admixtures. Diluents included Sterile Water for Injection (SWFI), Lactated Ringers Solution (LR), and 50% (v/v) ethanol/SWFI.
The study evaluating solubility and stability of lyophilized DOXO-EMCH reconstituted in SWFI, LR, and 50% (v/v) ethanol/SWFI was conducted using a target DOXO-EMCH concentration of 10 mg/mL. To obtain a 10 mg/mL concentration, 20 mL of diluent was added to a vial containing 200 mg of lyophilized DOXO-EMCH, and the vial was gently swirled to dissolve the contents and obtain a homogeneous mixture. The sample was mixed and visually inspected for complete reconstitution to a clear solution for a) approximately 30 seconds, b) approximately 60 seconds, and c) 120 seconds, then up to a total of 10 minutes. If more than 120 seconds were required for visual clarity, the vial may have been intermittently swirled up to a maximum of 10 minutes. Duplicate vials were prepared for each study. Each vial was assessed 10 minutes and 20 minutes after the addition of reconstitution diluent for visual appearance of the reconstituted solution and sampled at these time points for determination of DOXO-EMCH content, doxorubicin content, and solution pH. If a given diluent was determined to provide acceptable solubilization and stability of the vial contents after 20 minutes at ambient conditions, the diluent proceeded directly to part 2 of the study.
The reconstituted solution was evaluated for color, clarity, and absence of insoluble material in the vial after every 30 seconds of mixing. Following addition of the reconstituted drug product solution to the IV bag, the resulting IV Admixture was evaluated for color, clarity, and absence of any insoluble material immediately after mixing and at each analytical time point. The amount (area %) of the degradation product doxorubicin was determined at each time point.

[4] = test system: mice; settings: acute and repeat-dose; cited from earlier work
[5] = IV bag solution stability study of DOXO-EMCH API (0.9% NaCl, D5W, LR); type: physicochemical; settings: for solubility: ~2 mg/mL
Method: as §1
To obtain baseline data on the stability of DOXO-EMCH at the point of use, a study was designed to determine degradation of DOXO-EMCH when combined with candidate intravenous (IV) bag solutions. IV bag solutions including Dextrose 5% in Water (D5W), Lactated Ringers (LR), and Sodium Chloride Solution 0.9% (Normal Saline; NS) were used. 100 mg of DOXO-EMCH active pharmaceutical ingredient (API) were dissolved in 50 mL of the IV bag solution for a concentration of ˜2 mg/mL DOXO-EMCH API. The IV bag solutions containing API were then aliquoted in glass vials. The vials were stored at 25° C. in a stability chamber for the length of the experiment. Prior to the beginning of the IV bag stability study, all IV bag solutions were tested for pH and the presence of any peaks interfering with DOXO-EMCH or any degradation peaks of interest. Samples were pulled at 0 hr, 2 hr, 4 hr, and 6 hr time intervals and tested for pH and in duplicate by HPLC.
Tables 8-10 below list the results for the IV bag study using 0.9% NaCl, D5W, and Lactated Ringer's Solution. In summary, the 0.9% NaCl and Lactated Ringer's solutions met the goal of less than 3% doxorubicin over 3-5 hours. […] The sample was opaque and precipitated material visibly settled over a 2-hour period. […] The samples were mixed well before dilution of each sample for HPLC assay, but non-homogeneity of these samples is reflected in the DOXO-EMCH recovery values for those two IV bag solutions. […] The pH for D5W was the lowest of all the IV bag solutions tested.

[6] = ~2 mg/mL API in 0.9% NaCl IV solution, 25° C., 0 hr
[7] = ~2 mg/mL API in 0.9% NaCl IV solution, 25° C., 2 hr
[8] = ~2 mg/mL API in 0.9% NaCl IV solution, 25° C., 4 hr
[9] = ~2 mg/mL API in 0.9% NaCl IV solution, 25° C., 6 hr
[10] = ~2 mg/mL API in D5W IV solution, 25° C., 0 hr
[11] = ~2 mg/mL API in D5W IV solution, 25° C., 2 hr
[12] = ~2 mg/mL API in D5W IV solution, 25° C., 4 hr
[13] = ~2 mg/mL API in D5W IV solution, 25° C., 6 hr
[14] = ~2 mg/mL API in LR IV solution, 25° C., 0 hr
[15] = ~2 mg/mL API in LR IV solution, 25° C., 2 hr
[16] = ~2 mg/mL API in LR IV solution, 25° C., 4 hr
[17] = ~2 mg/mL API in LR IV solution, 25° C., 6 hr

COc1cccc2c1C(=O)c1c(O)c3c(c(O)c1C2=O)C[C@@](O)(/C(CO)=N/NC(=O)CCCCCN1C(=O)C=CC1=O)C[C@@H]3O[C@H]1C[C@H](N)[C@H](O)[C@H](C)O1.Cl [DOXO-EMCH]
initial pH of the DOXO-EMCH solution ([1]; ~2.0 mg/mL dissolved in DI Water, before adjustment): 5.4 | DOXO-EMCH ([1]; 0 hr): 98.8 wt % | Doxorubicin ([1]; 0 hr): 0.5 wt % | DOXO-EMCH ([1]; 2 hr): 91.8 wt % | Doxorubicin ([1]; 2 hr): 2.4 wt % | DOXO-EMCH ([1]; 4 hr): 85.6 wt % | Doxorubicin ([1]; 4 hr): 3.6 wt % | DOXO-EMCH ([1]; 6 hr): 80.6 wt % | Doxorubicin ([1]; 6 hr): 4.3 wt % | tolerance compared to doxorubicin [2]: significantly higher tolerance | solubility ([3]; in ethanol:water): completely soluble | time to go into solution ([3]; in ethanol:water): within less than a minute | mixing time until solutions appeared visually clear ([3]; reconstituted in 50:50 ethanol:water at 10 mg/mL): 120 s | pH ([3]; reconstituted in 50:50 ethanol:water at 10 mg/mL, 10 minutes): 5.9 | pH ([3]; reconstituted in 50:50 ethanol:water at 10 mg/mL, 20 minutes): 5.7 and 5.8 | mixing time until solutions appeared visually clear ([3]; reconstituted in LR at 10 mg/mL): 120 s | pH ([3]; reconstituted in LR at 10 mg/mL, 10 minutes): 6.0 and 5.9 | pH ([3]; reconstituted in LR at 10 mg/mL, 20 minutes): 5.9 and 5.8 | pH ([3]; reconstituted in SWFI at 10 mg/mL, 10 minutes): 5.4 and 5.3 | pH ([3]; reconstituted in SWFI at 10 mg/mL, 20 minutes): 5.1 and 5.5 | mixing time until solutions appeared visually clear ([3]; reconstituted in SWFI at 10 mg/mL, a few undissolved particles remained): 90 to 120 s | tolerance compared to doxorubicin [4]: significantly higher tolerance | doxorubicin over 3-5 hours (goal) ([5]; 0.9% NaCl IV solution, 25° C.): less than 3% | degradation over a 6 hour period ([5]; D5W solution, 25° C.): significant degradation of DOXO-EMCH and formation of doxorubicin | doxorubicin over 3-5 hours (goal) ([5]; Lactated Ringer's solution, 25° C.): less than 3% | solubility ([5]; in 0.9% NaCl): not completely soluble | solubility ([5]; in D5W): completely soluble | solubility ([5]; in Lactated Ringer's): not completely soluble | Doxorubicin [5, 6]: 0.3 wt % | pH [5, 6]: 6.5 | Doxorubicin [5, 7]: 0.9 wt % | pH [5, 7]: 6.0 | Doxorubicin [5, 8]: 2.1 wt % | pH [5, 8]: 5.6 | Doxorubicin [5, 9]: 2.6 wt % | pH [5, 9]: 5.7 | Doxorubicin [5, 10]: 1.6 wt % | pH [5, 10]: 5.5 | Doxorubicin [5, 11]: 5.8 wt % | pH [5, 11]: 5.0 | Doxorubicin [5, 12]: 11.2 wt % | pH [5, 12]: 4.9 | Doxorubicin [5, 13]: 16.8 wt % | pH [5, 13]: 4.8 | Doxorubicin [5, 14]: 0.2 wt % | pH [5, 14]: 6.3 | Doxorubicin [5, 15]: 0.5 wt % | pH [5, 15]: 6.1 | Doxorubicin [5, 16]: 0.9 wt % | pH [5, 16]: 6.0 | Doxorubicin [5, 17]: 1.6 wt % | pH [5, 17]: 5.9

From patent US10328093B2, “Anthracycline formulations” (CYTRX CORPORATION, priority 2012, dated 2019)
